Experimental data from patent publication US20150203517A1, “Prodrugs of Compounds that Enhance Antifungal Activity and Compositions of Said Prodrugs” (priority 2014, published 2015).
Structures can show the parent of a compound that is named as a salt.

What was measured:
[1] = Conversion of prodrugs to compound 1 in mouse plasma; type: in vitro ADME; details: mouse plasma (Na-Heparin treated); for Prodrug loss at 0.5 hr / Prodrug loss at 1 hr: 37° C.; for Prodrug solubility in plasma: equivalent to 1.00 mg/mL of compound 1, * = Plasma quickly became cloudy
Method: (§1) Step 1. Sample preparation. A quantity of blank mouse plasma (Na-Heparin treated) was incubated at 37° C. for 30 minutes. An amount of the compound sample was precisely weighed to correspond to around 5.00 mg of the hydroxamate of compound 1, taking into account the mass of the leaving group and the salt factor if applicable. The sample was placed in a 16×125 mm glass screw cap tube. The incubated blank mouse plasma was added so that the final concentration of hydroxamate 1 was 1.00 mg/mL. The sample was sonicated for 30 seconds, shaken for 30 seconds on a Vortex apparatus, and run through the HPLC procedure of Step 2 to get a time point zero value. The samples were stored in an incubator at 37° C., and the HPLC analysis of Step 2 was repeated at 30 minutes and 1 hour
(§2) Step 2. Protein precipitation and HPLC analysis of plasma. A 50 μL aliquot of plasma was taken in a 1.5 mL Eppendorf vial, to which was added 200 μL of MeCN. The vial was capped and shaken on a Vortex apparatus for 30 seconds, then centrifuged at 13000 rpm (15700 rcf) for five minutes. When centrifuging was complete, 100 μL of the supernatant was placed in an injection vial containing an insert, to which was added 100 μL of 0.1% formic acid in water. The vial was capped and shaken on a Vortex apparatus for 30 seconds, and the contents were injected into the HPLC-UV instrument, and a comparison was made of the retention time, peak areas and level of degradation (if any) using the GDADI50 method.

[2] = Saline solubility at 10.00 mg/mL, 5.00 mg/mL and 2.50 mg/mL (with pH by pH meter); type: physicochemical; details: saline or isotonic, thermodynamic from solid, concentration expressed as equivalent of Cpd 1, highest tested concentration soluble, read-out: Highest prodrug solubility in saline (equivalent of Cpd 1)
Method: The following procedures were used
Step 1. Sample preparation. An amount of the compound sample was precisely weighed to correspond to around 10 mg of the hydroxamate of compound 1, taking into account the mass of the leaving group and the salt factor if applicable. The sample was placed in a 16×125 mm glass screw cap tube. Saline was added so that the final concentration of hydroxamate 1 was 10.00 mg/mL. The tube was shaken for 1 hour on a Vortex apparatus then centrifuged at 3000 rpm (1800 rcf) for 5 minutes. If the compound example was soluble (no precipitate formed) then the pH was measured with a pH meter, and the procedure continued to step 2. If a precipitate formed then the sample was diluted with saline so that the final concentration of the hydroxamate of compound 1 became 5.00 mg/mL, and the shaking and centrifuging steps were repeated. If the compound example was soluble (no precipitate formed) then the pH was measured with a pH meter, and the procedure continued to step 2. If a precipitate formed then the sample was diluted with saline so that the final concentration of the hydroxamate of compound 1 became 2.50 mg/mL, and the shaking and centrifuging steps were repeated. If the compound example was soluble (no precipitate formed) then the pH was measured with a pH meter, and the procedure continued to step 2

[3] = Conversion of prodrugs to compound 1 in human plasma; type: in vitro ADME; details: human plasma (Na-Heparin treated), 37° C.
Method: as §1, with “blank human” for “blank mouse”, “repeated in” for “repeated at”, “1 hour.” for “1 hour”
as §2
Step 3. Reference sample preparation. An amount of the compound sample was precisely weighed to correspond to around 5.00 mg of the hydroxamate of compound 1, taking into account the mass of the leaving group and the salt factor if applicable. The sample was placed in a 16×125 mm glass screw cap tube. A quantity of MeCN/H2O 50/50 v/v was added so that the final concentration of hydroxamate 1 was 1.00 mg/mL. An injection vial was filled with 100 μL of this sample stock solution and 900 μL of a solution of 40/60 MeCN/0.1% formic acid in water. The vial was capped and the contents were injected into the HPLC-UV instrument, and a comparison was made of the retention time, peak areas and level of degradation (if any) using the GDADI50 method.

[4] = Saline solubility at 1.00 mg/mL and 0.50 mg/mL (with pH by indicator paper); type: physicochemical; details: for pH at 1.00 mg/mL of MGCD290 in saline: final concentration of hydroxamate 1 1.00 mg/mL, pH indicator paper; for solubility at 1 h: saline or isotonic, thermodynamic from solid, 1.00 mg/mL as hydroxamate 1, shaken 1 hour, centrifuged, soluble = no precipitate formed, read-out: Soluble at 1.00 mg/mL of MGCD290 (Y/N)
Method in brief: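 Prodrug was weighed to give 1.00 mg/mL hydroxamate equivalent in saline, vortexed 1 h and centrifuged, and diluted to 0.50 mg/mL if it precipitated. pH was checked by indicator paper. Stability in solution diluted 1:1 with saline was followed by HPLC-UV at 0, 6 and 24 h.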

Row | Prodrug loss at 0.5 hr [1] [%] | Prodrug loss at 1 hr [1] [%] | Prodrug solubility in plasma [1] | solubility at 1 h [2] [µg/mL] | Prodrug loss at 0.5 hr [3] [%] | Prodrug loss at 1 hr [3] [%] | pH at 1.00 mg/mL of MGCD290 in saline [4] | solubility at 1 h [4] [µg/mL] | SMILES
1 | 100 | 100 | Yes* | 2500 | 22.7 | 89.1 | 4.5-5 | > 1000 | COCCOCCOCC(=O)NCCCC[C@H](NC(=O)COCCOCCOC)C(=O)NCCCC(=O)ONC(=O)Cc1ccc(CCCCc2ccccc2)cc1 [Compound 99, (S)—N,N-(6-Oxo-6-(4-oxo-4-(2-(4-(4-phenylbutyl)phenyl)acetamidooxy)butylamino)hexane-1,5-diyl)bis(2-(2-(2-methoxyethoxyl)ethoxy)acetamide)]
2 | 100 | 100 | Yes* | 10000 | 98.7 | 99.8 | 4.5-5 | > 1000 | NCCNCC(=O)NCCC(=O)ONC(=O)Cc1ccc(CCCCc2ccccc2)cc1 [Compound 135, 2-(2-aminoethylamino)-N-(3-oxo-3-(2-(4-(4-phenylbutyl)phenyl)acetamidooxy)propyl) acetamide dihydrochloride]
3 | 100 | 100 | Yes* | 1000 | 69.4 | 93.4 | 4.5-5 | > 1000 | COCCOCC(=O)NCCCC[C@H](NC(=O)COCCOC)C(=O)NCCCC(=O)ONC(=O)Cc1ccc(CCCCc2ccccc2)cc1 [Compound 100]
4 | 100 | 100 | Yes* | 1000 | 99.3 | 100.0 |  | > 1000 | COCCOCCOCC(=O)NCCCC[C@H](NC(=O)COCCOCCOC)C(=O)NCCC(=O)ONC(=O)Cc1ccc(CCCCc2ccccc2)cc1 [Compound 63, (S)—N,N′-(6-Oxo-6-(3-oxo-3-(2-(4-(4-phenylbutyl)phenyl)acetamidooxy)propylamino)hexane-1,5-diyl)bis(2-(2-(2-methoxyethoxyl)ethoxy)acetamide)]
